Assay [1] addresses T1, human recombinant GST cleaved CSNK1D (Homo sapiens, UniProt P48730).
T1 construct: GST (cleaved yes); purchased University of Dundee clone DU 19064
Put plainly: Purified Enzyme Assay (ADP-Glo CSNK1D Kinase Assay). Type of assay: biochemical. The following applies: 2 nM CSNK1D; peptide substrate 150 μM; ATP 20 μM; 45 minutes at room temperature. An outline of the steps:
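GST-cleaved human recombinant CSNK1D phosphorylates peptide PLSRTL-pS-VASLPGL with ATP; compounds added in dose-response, 45 min at room temperature. ADP formed measured by ADP-Glo luminescence and converted to percent activity.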

The next assay addresses T2, human CSNK1D (Homo sapiens, UniProt P48730).
T2 construct: expressed in transfected cells
Put plainly: Whole Cell nBRET CSNK1D Binding Assay. The conditions noted are these: living CHO cells stably expressing human CSNK1D tagged with nanoluciferase; NanoBret tracer 130 nM; 2 hours at 37 C.

T2 sequence (P48730 whole entry): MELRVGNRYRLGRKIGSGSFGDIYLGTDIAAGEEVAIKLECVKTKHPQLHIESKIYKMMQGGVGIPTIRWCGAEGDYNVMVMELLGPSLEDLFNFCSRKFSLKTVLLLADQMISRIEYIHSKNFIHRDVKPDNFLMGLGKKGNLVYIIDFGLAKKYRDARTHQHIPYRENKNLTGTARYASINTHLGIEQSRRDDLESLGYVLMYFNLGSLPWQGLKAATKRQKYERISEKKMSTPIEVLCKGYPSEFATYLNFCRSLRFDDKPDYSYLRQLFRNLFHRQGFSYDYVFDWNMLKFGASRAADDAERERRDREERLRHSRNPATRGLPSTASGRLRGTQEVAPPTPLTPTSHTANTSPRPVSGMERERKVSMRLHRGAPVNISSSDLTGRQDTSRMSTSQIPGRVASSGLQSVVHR
T1 sequence (P48730 whole entry): as above

In the case of `Cc1n[nH]c2nccc(-c3c(-c4ccc(F)cc4)nn4c3OCC3(C4)CC3(F)F)c12` (single isomer, unassigned) [Example 472, (*S)-2,2-Difluoro-2′-(4-fluorophenyl)-3′-(3-methyl-1H-pyrazolo[3,4-b]pyridin-4-yl)-5′H,7′H-spiro[cyclopropane-1,6′-pyrazolo[5,1-b][1,3]oxazine]], the half-maximal inhibitory concentration (IC50) in assay [1] worked out at 69 nM; at human CSNK1D, 597 nM.
As for `Cc1nc2[nH]ncc2c(-c2c(-c3ccc(F)cn3)nn3c2CC[C@@]2(C3)CC2(F)F)c1F` (single isomer, unassigned) [Example 331, (*S)-2,2-Difluoro-3′-(5-fluoro-6-methyl-1H-pyrazolo[3,4-b]pyridin-4-yl)-2′-(5-fluoropyridin-2-yl)-4′,5′-dihydro-7′H-spiro[cyclopropane-1,6′-pyrazolo[1,5-a]pyridine]], the concentration for half-maximal inhibition (IC50) was 18 nM in assay [1] and 89 nM on human CSNK1D.
The corresponding values for `CC1(C)CCn2nc(-c3ccc(F)cn3)c(-c3ccnc4[nH]ncc34)c2C1` [Example 50, 4-(2-(5-Fluoropyridin-2-yl)-5,5-dimethyl-4,5,6,7-tetrahydropyrazolo[1,5-a]pyridin-3-yl)-1H-pyrazolo[3,4-b]pyridine] are 2 nM and 28 nM.
Consider `COCC1(F)CCc2c(-c3cc(C)nc4[nH]ccc34)c(-c3ccc(F)cn3)nn2C1` (single isomer, unassigned) [Example 299, (*R)-4-[6-Fluoro-2-(5-fluoro-2-pyridyl)-6-(methoxymethyl)-5,7-dihydro-4H-pyrazolo[1,5-a]pyridin-3-yl]-6-methyl-1H-pyrrolo[2,3-b]pyridine], for which the half-inhibitory concentration (IC50) is 20 nM in assay [1] and 303 nM on human CSNK1D.
On the same counts, the results for `Fc1ccc(-c2nn3c(c2-c2c(F)cnc4[nH]ncc24)COC2(C3)CC2(F)F)nc1` (single isomer, unassigned) [Example 436, (*S)-1′1l′-Difluoro-3-(5-fluoro-1H-pyrazolo[3,4-b]pyridin-4-yl)-2-(5-fluoro-2-pyridyl)spiro[4,7-dihydropyrazolo[5,1-c][1,4]oxazine-6,2′-cyclopropane]] are 156 nM and 3960 nM.
For the compound `Cc1nc2cc(-c3c(-c4ccc(F)cn4)nn4c3COC(C)(C)C4)ccn2n1` [Example 386, 2-(5-Fluoropyridin-2-yl)-6,6-dimethyl-3-(2-methyl-[1,2,4]triazolo[1,5-a]pyridin-7-yl)-6,7-dihydro-4H-pyrazolo[5,1-c][1,4]oxazine], the IC50 in assay [1] was found to be 162 nM; on human CSNK1D it was 9660 nM.
The corresponding values for `Cc1cc(-c2c(-c3ccc(F)cc3)nn3c2C[C@@H]2C[C@@H]23)c2cn[nH]c2n1` [Example 270] are 1 nM and 8 nM.
As for `Fc1ccc(-c2nn3c(c2-c2ccnc4[nH]ncc24)CCC3)cc1` [Example 4, 4-(2-(4-Fluorophenyl)-5,6-dihydro-4H-pyrrolo[1,2-b]pyrazol-3-yl)-1H-pyrazolo[3,4-b]pyridine], the figures for the half-inhibitory concentration (IC50) (in assay [1]; at human CSNK1D) were 1 nM and 22 nM, respectively.
Take `Cc1cc(-c2c(-c3ccc(F)cc3)nn3c2[C@@H]2C[C@@H]2C3)c2cn[nH]c2n1` (relative stereo) [Example 276, (3b*R,4a*S)-2-(4-Fluorophenyl)-3-(6-methyl-1H-pyrazolo[3,4-b]pyridin-4-yl)-3b,4,4a,5-tetrahydrocyclopropa[3,4]pyrrolo[1,2-b]pyrazole]: the IC50 in assay [1] was determined as 1 nM; on human CSNK1D, 6 nM.
Turning to `Cc1cc(-c2c(-c3ccc(F)cn3)nn3c2CC(C)(C)C3)c2cc[nH]c2n1` [Example 235, 4-[2-(5-Fluoro-2-pyridyl)-5,5-dimethyl-4,6-dihydropyrrolo[1,2-b]pyrazol-3-yl]-6-methyl-1H-pyrrolo[2,3-b]pyridine], the half-maximal inhibitory concentration (IC50) in assay [1] turned out to be 1 nM; at human CSNK1D, 8 nM.
Turning to `Cc1n[nH]c2nccc(-c3c(-c4ccc(F)cc4)nn4c3COC(C(F)(F)F)C4)c12` (single isomer, unassigned) [Example 372, (*S)-2-(4-Fluorophenyl)-3-(3-methyl-1H-pyrazolo[3,4-b]pyridin-4-yl)-6-(trifluoromethyl)-6,7-dihydro-4H-pyrazolo[5,1-c][1,4]oxazine], the half-maximal inhibitory concentration (IC50) in assay [1] stood at 42 nM; on human CSNK1D it was 724 nM.
Take `COc1ccc2nccc(-c3c(-c4ccc(F)cn4)nn4c3COC(C)(C)C4)c2n1` [Example 168, 2-(5-Fluoropyridin-2-yl)-3-(6-methoxy-1,5-naphthyridin-4-yl)-6,6-dimethyl-6,7-dihydro-4H-pyrazolo[5,1-c][1,4]oxazine]: the 50% inhibitory concentration (IC50) in assay [1] worked out at 19 nM; at human CSNK1D it was 836 nM.
For the compound `Cc1cc(-c2c(-c3ccc(F)cc3)nn3c2C[C@H]2C[C@H]23)c2cn[nH]c2n1` [Example 269], the IC50 turned out to be 6 nM in assay [1] and 73 nM at human CSNK1D.
For `Cc1nc2[nH]ncc2c(-c2c(-c3ccc(F)cn3)nn3c2OC[C@H]2C[C@H]2C3)c1F` (stereo in doubt) [Example 482, (5a*R,6a*S)-3-(5-Fluoro-6-methyl-1H-pyrazolo[3,4-b]pyridin-4-yl)-2-(5-fluoropyridin-2-yl)-5a,6,6a,7-tetrahydro-5H-cyclopropa[e]pyrazolo[5,1-b][1,3]oxazepine], the concentration for half-maximal inhibition (IC50) was found to be 8 nM in assay [1] and 79 nM at human CSNK1D.
On to `COC[C@@]1(F)CCc2c(-c3cc(C)nc4[nH]ncc34)c(-c3ccc(F)cn3)nn2C1` (single isomer, unassigned) [Example 54, (*R)-4-(6-Fluoro-2-(5-fluoropyridin-2-yl)-6-(methoxymethyl)-4,5,6,7-tetrahydropyrazolo[1,5-a]pyridin-3-yl)-6-methyl-1H-pyrazolo[3,4-b]pyridine], for which the IC50 is 84 nM in assay [1] and 3740 nM on human CSNK1D.
Consider `Fc1ccc(-c2nn3c(c2-c2c(F)cnc4[nH]ncc24)CCC(F)(F)C3)cc1` [Example 280, 4-(6,6-difluoro-2-(4-fluorophenyl)-4,5,6,7-tetrahydropyrazolo[1,5-a]pyridin-3-yl)-5-fluoro-1H-pyrazolo[3,4-b]pyridine], for which the 50% inhibitory concentration (IC50) turned out to be 4 nM in assay [1] and 19 nM at human CSNK1D.
Consider `Fc1ccc(-c2nn3c(c2-c2ccnc4[nH]nc(Cl)c24)CC2(C3)CC2(F)F)nc1` (single isomer, unassigned) [Example 256, (*S)-3-(3-Chloro-1H-pyrazolo[3,4-b]pyridin-4-yl)-1′,1′-difluoro-2-(5-fluoro-2-pyridyl)spiro[4,6-dihydropyrrolo[1,2-b]pyrazole-5,2′-cyclopropane]], for which the figures for the IC50 (in assay [1]; on human CSNK1D) were 12 nM and 117 nM, respectively.
For `CC1(C)CCc2c(-c3c(F)cnc4[nH]ncc34)c(-c3ccc(F)cn3)nn2C1` [Example 282, 5-Fluoro-4-[2-(5-fluoro-2-pyridyl)-6,6-dimethyl-5,7-dihydro-4H-pyrazolo[1,5-a]pyridin-3-yl]-1H-pyrazolo[3,4-b]pyridine], the IC50 was determined as 9 nM in assay [1] and 48 nM at human CSNK1D.
Take `C[C@@H]1CCc2c(-c3ccnc4[nH]ncc34)c(-c3ccc(F)cc3)nn21` [Example 16, 4-[(6R)-2-(4-Fluorophenyl)-6-methyl-5,6-dihydro-4H-pyrrolo[1,2-b]pyrazol-3-yl]-1H-pyrazolo[3,4-b]pyridine]: the IC50 in assay [1] came to 4 nM; on human CSNK1D it was 51 nM.
In the case of `Fc1ccc(-c2nn3c(c2-c2ccnc4[nH]ncc24)COC2(CC2)C3)nc1` [Example 432, 2-(5-Fluoro-2-pyridyl)-3-(1H-pyrazolo[3,4-b]pyridin-4-yl)spiro[4,7-dihydropyrazolo[5,1-c][1,4]oxazine-6,1′-cyclopropane]], the half-maximal inhibitory concentration (IC50) in assay [1] turned out to be 8 nM; at human CSNK1D it was 195 nM.
The corresponding values for `Cc1nc(-c2c(-c3ccc(F)cc3)nn3c2CCC(F)(F)C3)c2cn[nH]c2n1` [Example 279, 4-[6,6-Difluoro-2-(4-fluorophenyl)-5,7-dihydro-4H-pyrazolo[1,5-a]pyridin-3-yl]-6-methyl-1H-pyrazolo[3,4-d]pyrimidine] are 5 nM and 74 nM.
On the same counts, the results for `Fc1ccc(-c2nn3c(c2-c2ccnc4[nH]ncc24)CC(F)(F)C3)cc1` [Example 230, 4-[5,5-Difluoro-2-(4-fluorophenyl)-4,6-dihydropyrrolo[1,2-b]pyrazol-3-yl]-1H-pyrazolo[3,4-b]pyridine] are 5 nM and 74 nM.
In the case of `Fc1ccc(-c2nn3c(c2-c2ccncc2)COCC3)cc1` [Example 369, 2-(4-Fluorophenyl)-3-(4-pyridyl)-6,7-dihydro-4H-pyrazolo[5,1-c][1,4]oxazine], the IC50 in assay [1] stood at 12 nM; on human CSNK1D, 96 nM.
For the compound `C[C@@]1(C(F)(F)F)Cn2nc(-c3ccc(F)cn3)c(-c3ccnc4[nH]ncc34)c2CO1` (single isomer, unassigned) [Example 177, (*S)-2-(5-Fluoropyridin-2-yl)-6-methyl-3-(1H-pyrazolo[3,4-b]pyridin-4-yl)-6-(trifluoromethyl)-6,7-dihydro-4H-pyrazolo[5,1-c][1,4]oxazine], the IC50 in assay [1] is 3 nM; at human CSNK1D it was 44 nM.
Regarding `CC1(C)Cn2nc(-c3ccc(F)cn3)c(-c3cc(C4CC4)nc4[nH]ncc34)c2CO1` [Example 155, 3-(6-Cyclopropyl-1H-pyrazolo[3,4-b]pyridin-4-yl)-2-(5-fluoropyridin-2-yl)-6,6-dimethyl-6,7-dihydro-4H-pyrazolo[5,1-c][1,4]oxazine], the concentration for half-maximal inhibition (IC50) worked out at 8 nM in assay [1] and 172 nM at human CSNK1D.
The corresponding values for `Cc1cc(-c2c(-c3ccc(Cl)cc3)nn3c2COCC3)c2cn[nH]c2n1` [Example 68, 2-(4-Chlorophenyl)-3-(6-methyl-1H-pyrazolo[3,4-b]pyridin-4-yl)-6,7-dihydro-4H-pyrazolo[5,1-c][1,4]oxazine] are 27 nM and 206 nM.

The record behind these values is US20230339970A1, “CASEIN KINASE 1 DELTA MODULATORS” (priority 2020, published 2023).
